Source: the NIST ThermoML archive (doi:10.1021/je800150h)
Numbers after ± are expanded uncertainties.

Settings: 101 kPa, Liquid

CCO [ethanol]
Settings | mass density [kg/m3] | viscosity [mPa·s]
268.1 K | 811.1 ± 3.8 | 1.975 ± 0.093
273.1 K | 806.8 ± 3.6 | 1.775 ± 0.084
278.1 K | 802.6 ± 3.4 | 1.629 ± 0.077
283.1 K | 798.4 ± 3.1 | 1.468 ± 0.07
288.15 K | 794.2 ± 2.9 | 1.341 ± 0.065
293.15 K | 789.9 ± 2.7 | 1.207 ± 0.059
298.15 K | 785.7 ± 2.9 | 1.105 ± 0.054
303.15 K | 781.4 ± 3.1 | 1.01 ± 0.05
308.15 K | 777.1 ± 3.2 | 0.92 ± 0.046
313.15 K | 772.8 ± 3.4 | 0.84 ± 0.043
318.15 K | 767.9 ± 3.6 | 0.772 ± 0.04
323.15 K | 763.4 ± 3.7 | 0.713 ± 0.037

O [water]
Settings | mass density [kg/m3] | viscosity [mPa·s]
278.1 K | 999.9 ± 4.4 | 1.519 ± 0.072
283.1 K | 999.7 ± 4.2 | 1.308 ± 0.063
288.15 K | – | 1.14 ± 0.056
293.15 K | – | 1.005 ± 0.05
298.15 K | – | 0.894 ± 0.045
303.15 K | – | 0.799 ± 0.041
308.15 K | 994.1 ± 4.3 | 0.723 ± 0.038
313.15 K | – | 0.655 ± 0.035
318.15 K | – | 0.599 ± 0.032
323.15 K | – | 0.548 ± 0.03
